Laboratory results as given in patent publication US9416142B2, “Griseofulvin derivatives” (PIERRE FABRE MEDICAMENT, priority 2012, dated 2016).

Legend:
Format in all cases: cell-based
[1] = system: HCC1937 (primary ductal breast carcinoma cell line); assay: Cytotoxic activity, cell proliferation (ATPLite) on HCC1937 line; conditions: Homo sapiens, 48 hours after treatment
Procedure: (§1) Culture of Lines and Measurement of Cell Viability:
(§2) The lines NIE115 (ATCC, CRL2263), MDA-MB-231 (ATCC, HTB26) and HSC-1 (Health Science Research Resources Bank, JCRB1015) were cultured in DMEM medium (Dulbecco's modified Eagle medium) supplemented with 2 mM of L-Glutamine (Sigma, G7513) and 10% foetal calf serum (Hyclone, SH30109.03) or 20% for the HSC-1 cells. The HCC-1937 (ATCC, CRL2336) and A549 (ATCC, CCL185) lines were cultured in RPMI medium (Roswell Park Memorial Institute medium) supplemented with 10% foetal calf serum and 2 mM of L-Glutamine. Finally, the SCC114 line (DSMZ, ACC662) was cultured in MEM medium (Minimum Essential Medium Eagle) supplemented with 10% foetal calf serum and 2 mM of L-Glutamine. Initially, in 96-well plates (Perkin Elmer, 6005668), the cells were seeded in their respective culture media with 750 cells per well for NIE115; 1000 cells per well for SCC114 and A549; 2000 cells per well for HCC-1937 and HSC-1; 2500 cells per well for MDA-MB-231. Cascade dilution of each compound was performed in dimethylsulfoxide (DMSO) (Sigma, D8418) using 10 mM stock solutions in 100% DMSO. Each of the dilutions was added to the cells 24 hours after seeding. Under these conditions the final solvent concentration was 0.1% DMSO. Reading of cell proliferation was conducted 72 hours after addition of products with the ATPLite kit (Perkin Elmer, 6016947) and following the manufacturer's directions except in the case of the HCC-1937 line for which this reading was carried out 48 hours after treatment. Analysis of proliferation results was performed by comparing with conditions in which solely the vehicle was added to the cells. The dose-response curves obtained were analysed using Prism 4.03 software (GraphPad Software Inc.) to determine the concentration of each compound allowing 50% inhibition of cell proliferation (IC50). As examples, the cytotoxic properties of some compounds of the invention evaluated on the lines A549 (lung cancer cell line), MDA-MB-231 (mammary adenocarcinoma cell line), NIE115 (mouse brain neuroblastoma cell line), HCC-1937 1 (primary ductal breast carcinoma cell line), HSC-1 (cutaneous squamous carcinoma cell line) and SCC114 (oral squamous carcinoma cell line) are reported in Table 1, as compared with griseofulvin used as control product. The concentration values are expressed in micromolar units (μM).
The activity of the compounds of the invention on the […] line was compared with that of known cytotoxics (Epotilone B and Vinflunine).

[2] = system: SCC114 (oral squamous carcinoma cell line); assay: Cytotoxic activity, cell proliferation (ATPLite) on SCC114 line; conditions: 50% inhibition of cell proliferation, 72 hours after addition
Procedure: as §1, §2

[3] = system: MDA-MB-231 (mammary adenocarcinoma cell line); assay: Cytotoxic activity, cell proliferation (ATPLite) on MDA-MB-231 line; conditions: Homo sapiens, 50% inhibition of cell proliferation, 72 hours after addition
Procedure: as §1
as §2, with “Analysis of proliferation results was performed by comparing with conditions in which solely the vehicle was added to the cells. The dose-response curves obtained were analysed using Prism 4.03 software (GraphPad Software Inc.) to determine the concentration of each compound allowing 50% inhibition of cell proliferation (IC50).” left out, “The concentration values are expressed in micromolar units (μM).” left out

[4] = system: N1E-115 (mouse brain neuroblastoma cell line); assay: Cytotoxic activity, cell proliferation (ATPLite) on N1E-115 line; conditions: 50% inhibition of cell proliferation, 72 hours after addition
Procedure: as §1
as §2, with “Analysis of proliferation results was performed by comparing with conditions in which solely the vehicle was added to the cells. The dose-response curves obtained were analysed using Prism 4.03 software (GraphPad Software Inc.) to determine the concentration of each compound allowing 50% inhibition of cell proliferation (IC50).” left out, “The concentration values are expressed in micromolar units (μM).” left out

[5] = system: A549 (lung cancer cell line); assay: Cytotoxic activity, cell proliferation (ATPLite) on A549 line; conditions: Homo sapiens, 50% inhibition of cell proliferation, 72 hours after addition
Procedure: as §1
as §2, with “Analysis of proliferation results was performed by comparing with conditions in which solely the vehicle was added to the cells. The dose-response curves obtained were analysed using Prism 4.03 software (GraphPad Software Inc.) to determine the concentration of each compound allowing 50% inhibition of cell proliferation (IC50).” left out, “The concentration values are expressed in micromolar units (μM).” left out

[6] = system: HSC-1 (cutaneous squamous carcinoma cell line); assay: Cytotoxic activity, cell proliferation (ATPLite) on HSC-1 line; conditions: 50% inhibition of cell proliferation, 72 hours after addition
Procedure: as §1
The lines NIE115 (ATCC, CRL2263), MDA-MB-231 (ATCC, HTB26) and HSC-1 (Health Science Research Resources Bank, JCRB1015) were cultured in DMEM medium (Dulbecco's modified Eagle medium) supplemented with 2 mM of L-Glutamine (Sigma, G7513) and 10% foetal calf serum (Hyclone, SH30109.03) or 20% for the HSC-1 cells. The HCC-1937 (ATCC, CRL2336) and A549 (ATCC, CCL185) lines were cultured in RPMI medium (Roswell Park Memorial Institute medium) supplemented with 10% foetal calf serum and 2 mM of L-Glutamine. […] Reading of cell proliferation was conducted 72 hours after addition of products with the ATPLite kit (Perkin Elmer, 6016947) and following the manufacturer's directions except in the case of the HCC-1937 line for which this reading was carried out 48 hours after treatment. […] As examples, the cytotoxic properties of some compounds of the invention evaluated on the lines A549 (lung cancer cell line), MDA-MB-231 (mammary adenocarcinoma cell line), NIE115 (mouse brain neuroblastoma cell line), HCC-1937 1 (primary ductal breast carcinoma cell line), HSC-1 (cutaneous squamous carcinoma cell line) and SCC114 (oral squamous carcinoma cell line) are reported in Table 1, as compared with griseofulvin used as control product. […]

[7] = Table 2, comparison with known cytotoxics and 2′-SR7 compounds
[8] = Table 1, 50% inhibition of cell proliferation

Row | SMILES | IC50 [1, 7] [µM] | IC50 [1, 8] [µM] | IC50 [2] [µM] | other results
1 | COc1cc(OC)c2c(c1Cl)O[C@]1(C2=O)C(SCCN(C)C)=CC(=O)C[C@H]1C (racemic) [B, reference compound] | > 10 |  |  | 
2 | COc1cc(OC)c2c(c1Cl)OC1(C2=O)C(SCc2ccccc2)=CC(=O)C[C@H]1C (some centres unmarked) [A, reference compound] | > 10 |  |  | 
3 | COc1cc(OC)c2c(c1Cl)O[C@@]1(C=C([S+]([O-])c3ccccc3)C(=O)C[C@H]1C)C2=O (some centres unmarked) [Compound 95] |  | 0.43 | 0.25 | IC50 [3]: 0.54 µM; IC50 [4]: 1 µM; IC50 [5]: 0.25 µM
4 | COc1cc(OC)c2c(c1Cl)O[C@@]1(C=C(S(=O)(=O)Cc3ccccc3)C(=O)C[C@H]1C)C2=O [Compound 96, (1′S,6′R)-3′-(benzylsulfonyl)-7-chloro-4,6-dimethoxy-6′-methyl-3H-spiro[benzofuran-2,1′-cyclohex[2]ene]-3,4′-dione] |  | 0.92 |  | 
5 | COc1cc(OC)c2c(c1Cl)O[C@@]1(C=C([S+]([O-])Cc3ccccc3)C(=O)C[C@H]1C)C2=O (stereo partly drawn) [Compound 97, (1′S,6′R)-3′-(benzylsulfinyl)-7-chloro-4,6-dimethoxy-6′-methyl-3H-spiro[benzofuran-2,1′-cyclohex[2]ene]-3,4′-dione] |  |  | 0.021 | 
6 | COc1cc(OC)c2c(c1Cl)O[C@@]1(C=C(S(=O)(=O)c3ccccc3)C(=O)C[C@H]1C)C2=O [Compound 98, (1′S,6′R)-7-chloro-4,6-dimethoxy-6′-methyl-3′-(phenylsulfonyl)-3H-spiro[benzofuran-2,1′-cyclohex[2]ene]-3,4′-dione] |  | 0.7 | 0.41 | 
7 | COc1cc(OC)c2c(c1Cl)O[C@]1(C2=O)C(S(=O)(=O)Cc2ccccc2)=CC(=O)C[C@H]1C [Compound 145, (1′R,6′R)-2′-(benzylsulfonyl)-7-chloro-4,6-dimethoxy-6′-methyl-3H-spiro[benzofuran-2,1′-cyclohex[2]ene]-3,4′-dione] |  | 1.4 | 0.385 | IC50 [3]: 2 µM; IC50 [4]: 3 µM; IC50 [5]: 1.5 µM
8 | COc1cc(OC)c2c(c1Cl)O[C@]1(C2=O)C(S(=O)(=O)CCN(C)C)=CC(=O)C[C@H]1C [Compound 146, (1′R,6′R)-7-chloro-2′-(2-(dimethylamino)ethylsulfonyl)-4,6-dimethoxy-6′-methyl-3H-spiro[benzofuran-2,1′-cyclohex[2]ene]-3,4′-dione] |  | 5.9 |  | 
9 | COc1cc(OC)c2c(c1Cl)O[C@]1(C2=O)C(S(=O)(=O)c2ccccc2)=CC(=O)C[C@H]1C [Compound 147, (1′R,6′R)-7-chloro-4,6-dimethoxy-6′-methyl-2′-(phenylsulfonyl)-3H-spiro[benzofuran-2,1′-cyclohex[2]ene]-3,4′-dione] |  | 1.6 |  | 
10 | C/C(=C\c1csc(C)n1)[C@@H]1C[C@@H]2O[C@]2(C)CCC[C@H](C)[C@H](O)[C@@H](C)C(=O)C(C)(C)[C@@H](O)CC(=O)O1 [Epotilone B, reference compound] | > 10 |  |  | 
11 | COC1=CC(=O)C[C@@H](C)[C@]12Oc1c(Cl)c(OC)cc(OC)c1C2=O [Griseofulvin] |  | > 10 | 6.4 | IC50 [3]: > 10 µM; IC50 [6]: > 10 µM; IC50 [4]: > 10 µM; IC50 [5]: > 10 µM
12 | CC[C@]12C=CCN3CC[C@@]4(c5cc([C@@]6(C(=O)OC)C[C@@H]7C[C@@H](C(C)(F)F)CN(Cc8c6[nH]c6ccccc86)C7)c(OC)cc5N(C)[C@H]4[C@@](O)(C(=O)OC)[C@@H]1OC(C)=O)[C@@H]32 [Vinflunine, reference compound] | > 10 |  |  | 
